Measured values from PubChem BioAssay AID256 (DTP/NCI, 2004).
Where “and” joins values, the source holds several entries; their conditions need not be identical. Identical values can stand only once. Inconclusive results and toxic doses are left out.

Tested on: CD2F1 mice, L1210 leukemia ip, survival T/C
Assay: NCI In Vivo Anticancer Drug Screen. Data for tumor model L1210 Leukemia (intraperitoneal) in CD2F1 (CDF1) mice
Conditions: higher = longer survival
In short: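 Ratio T/C, where T is the treated-group value and C the vehicle-dosed control value, from mice implanted with a transplantable tumor.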

[1] = endpoint: mean survival time, dose: 100.0 mg/kg/injection, schedule: Q01DX009 (ip), vehicle: other
[2] = endpoint: mean survival time, dose: 200.0 mg/kg/injection, schedule: Q01DX009 (ip), vehicle: other
[3] = endpoint: mean survival time, dose: 50.0 mg/kg/injection, schedule: Q01DX009 (ip), vehicle: Klucel (hydroxypropylcellulose) (HPC)
[4] = endpoint: mean survival time, dose: 100.0 mg/kg/injection, schedule: Q01DX009 (ip), vehicle: Klucel (hydroxypropylcellulose) (HPC)
[5] = endpoint: mean survival time, dose: 200.0 mg/kg/injection, schedule: Q01DX009 (ip), vehicle: Klucel (hydroxypropylcellulose) (HPC)

CC(c1ccccc1)N1CCCOP1(=O)N(CCCl)CCCl (stereo not given) was tested, and the T/C (endpoint: mean survival time, dose: 6.25 mg/kg/injection, schedule: Q01DX009 (ip), vehicle: other) was 103 % of control, the T/C (endpoint: mean survival time, dose: 12.5 mg/kg/injection, schedule: Q01DX009 (ip), vehicle: other) was 103 % of control and 94 % of control and the T/C (endpoint: mean survival time, dose: 25.0 mg/kg/injection, schedule: Q01DX009 (ip), vehicle: other) was 98 % of control and 94 % of control. The T/C (endpoint: mean survival time, dose: 31.3 mg/kg/injection, schedule: Q01DX001 (ip), vehicle: other) was 98 % of control and 112 % of control and 103 % of control, the T/C (endpoint: mean survival time, dose: 31.3 mg/kg/injection, schedule: Q01DX001 (ip), vehicle: saline + alcohol) was 101 % of control and the T/C (endpoint: mean survival time, dose: 50.0 mg/kg/injection, schedule: Q01DX009 (ip), vehicle: other) was 109 % of control and 94 % of control. The T/C (endpoint: mean survival time, dose: 62.5 mg/kg/injection, schedule: Q01DX001 (ip), vehicle: other) was 98 % of control and 100 % of control and 103 % of control, the T/C (endpoint: mean survival time, dose: 62.5 mg/kg/injection, schedule: Q01DX001 (ip), vehicle: saline + alcohol) was 94 % of control and the T/C [1] was 115 % of control and 96 % of control. For the same molecule, the T/C (endpoint: mean survival time, dose: 125.0 mg/kg/injection, schedule: Q01DX001 (ip), vehicle: other) was 113 % of control and 108 % of control and 100 % of control, the T/C (endpoint: mean survival time, dose: 125.0 mg/kg/injection, schedule: Q01DX001 (ip), vehicle: saline + alcohol) was 97 % of control and the T/C [2] was 100 % of control. For the same molecule, the T/C (endpoint: mean survival time, dose: 250.0 mg/kg/injection, schedule: Q01DX001 (ip), vehicle: other) was 107 % of control and 100 % of control and 103 % of control, the T/C (endpoint: mean survival time, dose: 250.0 mg/kg/injection, schedule: Q01DX001 (ip), vehicle: saline + alcohol) was 97 % of control and the T/C (endpoint: mean survival time, dose: 500.0 mg/kg/injection, schedule: Q01DX001 (ip), vehicle: other) was 100 % of control and 103 % of control. For the same molecule, the T/C (endpoint: mean survival time, dose: 500.0 mg/kg/injection, schedule: Q01DX001 (ip), vehicle: saline + alcohol) was 91 % of control.
COc1cccc(/C=N/NC(=O)CNC(=O)Nc2cccc(Cl)c2)c1OC was tested, and the T/C (endpoint: mean survival time, dose: 100.0 mg/kg/injection, schedule: Q01DX009 (ip), vehicle: saline with Tween-80) was 101 % of control, the T/C (endpoint: mean survival time, dose: 200.0 mg/kg/injection, schedule: Q01DX009 (ip), vehicle: saline with Tween-80) was 109 % of control and the T/C (endpoint: mean survival time, dose: 400.0 mg/kg/injection, schedule: Q01DX009 (ip), vehicle: saline with Tween-80) was 103 % of control.
With O=C1C(N2CC2)=C(N2CCCC(O)C2)C(=O)C(N2CC2)=C1N1CCCC(O)C1 (stereo not given) the T/C (endpoint: mean survival time, dose: 2.0 mg/kg/injection, schedule: Q01DX009 (ip), vehicle: saline) was 162 % of control and 173 % of control.
O=C1c2ccccc2C(=O)c2c1cn1c2Cc2ccccc2C1 was tested, and the T/C (endpoint: median survival time, dose: 9.0 mg/kg/injection, schedule: Q01DX005 (ip), vehicle: Klucel (hydroxypropylcellulose) (HPC)) was 106 % of control, the T/C (endpoint: median survival time, dose: 9.37 mg/kg/injection, schedule: Q01DX005 (ip), vehicle: other) was 106 % of control and 107 % of control and the T/C (endpoint: median survival time, dose: 12.5 mg/kg/injection, schedule: Q01DX005 (ip), vehicle: Klucel (hydroxypropylcellulose) (HPC)) was 110 % of control. For the same molecule, the T/C (endpoint: median survival time, dose: 15.0 mg/kg/injection, schedule: Q01DX005 (ip), vehicle: Klucel (hydroxypropylcellulose) (HPC)) was 109 % of control, the T/C (endpoint: median survival time, dose: 18.75 mg/kg/injection, schedule: Q01DX005 (ip), vehicle: other) was 114 % of control and 103 % of control and the T/C (endpoint: median survival time, dose: 25.0 mg/kg/injection, schedule: Q01DX005 (ip), vehicle: Klucel (hydroxypropylcellulose) (HPC)) was 107 % of control. For the same molecule, the T/C (endpoint: median survival time, dose: 37.5 mg/kg/injection, schedule: Q01DX005 (ip), vehicle: other) was 114 % of control and 111 % of control, the T/C (endpoint: median survival time, dose: 41.66 mg/kg/injection, schedule: Q01DX005 (ip), vehicle: Klucel (hydroxypropylcellulose) (HPC)) was 114 % of control and the T/C (endpoint: median survival time, dose: 50.0 mg/kg/injection, schedule: Q01DX005 (ip), vehicle: Klucel (hydroxypropylcellulose) (HPC)) was 108 % of control. For the same molecule, the T/C (endpoint: median survival time, dose: 69.44 mg/kg/injection, schedule: Q01DX005 (ip), vehicle: Klucel (hydroxypropylcellulose) (HPC)) was 106 % of control, the T/C (endpoint: median survival time, dose: 75.0 mg/kg/injection, schedule: Q01DX005 (ip), vehicle: other) was 114 % of control and 98 % of control and the T/C (endpoint: median survival time, dose: 100.0 mg/kg/injection, schedule: Q01DX005 (ip), vehicle: Klucel (hydroxypropylcellulose) (HPC)) was 122 % of control. The T/C (endpoint: median survival time, dose: 150.0 mg/kg/injection, schedule: Q01DX005 (ip), vehicle: other) was 110 % of control and the T/C (endpoint: median survival time, dose: 200.0 mg/kg/injection, schedule: Q01DX005 (ip), vehicle: Klucel (hydroxypropylcellulose) (HPC)) was 107 % of control.
In the case of O=C1N=c2cc([N+](=O)[O-])c([N+](=O)[O-])cc2=N1, the T/C (endpoint: mean survival time, dose: 100.0 mg/kg/injection, schedule: Q01DX001 (ip), vehicle: saline with Tween-80) is reported as 97 % of control, the T/C (endpoint: mean survival time, dose: 200.0 mg/kg/injection, schedule: Q01DX001 (ip), vehicle: saline with Tween-80) is reported as 103 % of control and the T/C (endpoint: mean survival time, dose: 400.0 mg/kg/injection, schedule: Q01DX001 (ip), vehicle: saline with Tween-80) is reported as 98 % of control.
With CC(SC(=S)N(C)C)C(=O)O (stereo not given) the T/C (endpoint: mean survival time, dose: 100.0 mg/kg/injection, schedule: Q04DX003 (ip), vehicle: saline with Tween-80) was 96 % of control, the T/C (endpoint: mean survival time, dose: 200.0 mg/kg/injection, schedule: Q04DX003 (ip), vehicle: saline with Tween-80) was 101 % of control and the T/C (endpoint: mean survival time, dose: 400.0 mg/kg/injection, schedule: Q04DX003 (ip), vehicle: saline with Tween-80) was 101 % of control.
COB(C1CCCCC1)C1CCCCC1 was tested, and the T/C [1] was 91 % of control and the T/C [2] was 88 % of control.
With CC1=NCCCN=C(C)C([N+](=O)[O-])C=NC(C)(C)CN=CC1[N+](=O)[O-].[Ni] (stereo not given) the T/C (endpoint: mean survival time, dose: 12.5 mg/kg/injection, schedule: Q04DX002 (ip), vehicle: saline with Tween-80) was 97 % of control, the T/C (endpoint: mean survival time, dose: 25.0 mg/kg/injection, schedule: Q04DX002 (ip), vehicle: saline with Tween-80) was 97 % of control and the T/C (endpoint: mean survival time, dose: 50.0 mg/kg/injection, schedule: Q04DX002 (ip), vehicle: saline with Tween-80) was 93 % of control.
With O=C(O)c1ccccc1C(=O)Nc1nccs1 the T/C [3] was 97 % of control, the T/C [4] was 105 % of control and the T/C [5] was 101 % of control.
In the case of CC(=O)/C(C#N)=C(\C)N, the T/C (endpoint: mean survival time, dose: 50.0 mg/kg/injection, schedule: Q04DX002 (ip), vehicle: saline) is reported as 103 % of control, the T/C (endpoint: mean survival time, dose: 100.0 mg/kg/injection, schedule: Q04DX002 (ip), vehicle: saline) is reported as 103 % of control and the T/C (endpoint: mean survival time, dose: 200.0 mg/kg/injection, schedule: Q04DX002 (ip), vehicle: saline) is reported as 103 % of control.
For NC(=O)c1ncnc2c1ncn2C1OC(CO)C(O)C1O (stereo not given), the T/C (endpoint: mean survival time, dose: 12.5 mg/kg/injection, schedule: Q01DX005 (ip), vehicle: water) was 104 % of control and 102 % of control, the T/C (endpoint: mean survival time, dose: 25.0 mg/kg/injection, schedule: Q01DX005 (ip), vehicle: water) was 104 % of control and 97 % of control and the T/C (endpoint: mean survival time, dose: 50.0 mg/kg/injection, schedule: Q01DX005 (ip), vehicle: water) was 106 % of control and 96 % of control. For the same molecule, the T/C (endpoint: mean survival time, dose: 100.0 mg/kg/injection, schedule: Q01DX005 (ip), vehicle: water) was 110 % of control and 100 % of control and the T/C (endpoint: mean survival time, dose: 200.0 mg/kg/injection, schedule: Q01DX005 (ip), vehicle: water) was 110 % of control and 96 % of control.
With COc1c(CNC(=O)CCl)cc2[nH]c(C)cc2c1CNC(=O)CCl the T/C (endpoint: mean survival time, dose: 12.5 mg/kg/injection, schedule: Q01DX009 (ip), vehicle: Klucel (hydroxypropylcellulose) (HPC)) was 98 % of control, the T/C (endpoint: mean survival time, dose: 25.0 mg/kg/injection, schedule: Q01DX009 (ip), vehicle: Klucel (hydroxypropylcellulose) (HPC)) was 98 % of control and 101 % of control and the T/C [3] was 98 % of control and 103 % of control. For the same molecule, the T/C [4] was 97 % of control and 102 % of control, the T/C [5] was 93 % of control and 104 % of control and the T/C (endpoint: mean survival time, dose: 400.0 mg/kg/injection, schedule: Q01DX009 (ip), vehicle: Klucel (hydroxypropylcellulose) (HPC)) was 95 % of control.
CCN1CCC(CC)(CN2c3ccccc3Sc3ccc(Cl)cc32)C1 (stereo not given) was tested, and the T/C (endpoint: mean survival time, dose: 100.0 mg/kg/injection, schedule: Q04DX003 (ip), vehicle: saline) was 100 % of control and the T/C (endpoint: mean survival time, dose: 200.0 mg/kg/injection, schedule: Q04DX003 (ip), vehicle: saline) was 96 % of control.
CCCCCCCCCCS(=O)CC(CO)NC(=O)/C=C/c1c(C)[nH]c(=O)[nH]c1=O (stereo not given) was tested, and the T/C (endpoint: mean survival time, dose: 0.37 mg/kg/injection, schedule: Q01DX009 (ip), vehicle: distilled water + Tween-80) was 102 % of control and 106 % of control, the T/C (endpoint: mean survival time, dose: 0.75 mg/kg/injection, schedule: Q01DX009 (ip), vehicle: distilled water + Tween-80) was 110 % of control and 111 % of control and the T/C (endpoint: mean survival time, dose: 1.5 mg/kg/injection, schedule: Q01DX009 (ip), vehicle: distilled water + Tween-80) was 113 % of control and 101 % of control. The T/C (endpoint: mean survival time, dose: 3.0 mg/kg/injection, schedule: Q01DX009 (ip), vehicle: distilled water + Tween-80) was 114 % of control and 117 % of control, the T/C (endpoint: mean survival time, dose: 6.0 mg/kg/injection, schedule: Q01DX009 (ip), vehicle: distilled water + Tween-80) was 117 % of control and the T/C (endpoint: mean survival time, dose: 12.0 mg/kg/injection, schedule: Q01DX009 (ip), vehicle: distilled water + Tween-80) was 89 % of control and 96 % of control.
For N=C(N)c1cn(C2OC(CO)C(O)C2O)c2ncnc(N)c12 (stereo not given), the T/C (endpoint: mean survival time, dose: 0.63 mg/kg/injection, schedule: Q01DX009 (ip), vehicle: saline) was 123 % of control and the T/C (endpoint: mean survival time, dose: 2.5 mg/kg/injection, schedule: Q01DX009 (ip), vehicle: saline) was 124 % of control.
For N#CC(C#N)=NNc1cccc(Cl)c1Cl, the T/C (endpoint: mean survival time, dose: 5.0 mg/kg/injection, schedule: Q04DX003 (ip), vehicle: saline with Tween-80) was 106 % of control, the T/C (endpoint: mean survival time, dose: 10.0 mg/kg/injection, schedule: Q04DX003 (ip), vehicle: saline with Tween-80) was 104 % of control and the T/C (endpoint: mean survival time, dose: 20.0 mg/kg/injection, schedule: Q04DX003 (ip), vehicle: saline with Tween-80) was 101 % of control.
